Reference: patent US20190330224A1, “ACC INHIBITORS AND USES THEREOF” (Gilead Apollo, LLC, priority 2015, published 2019)
In brackets after ≈: the same amount, converted by molar mass.

How the values were obtained:
C. krusei ATCC 6258 = assay: Anti-Fungal Activity Assay (broth microtiter MIC), C. krusei; type: cell-based, Candida krusei; conditions: 3 replicates, MIC recorded at 48 h; for MIC: Pichia kudriavzevii, ATCC6258, 48 h, read-out: MIC C. krusei ATCC 6258
Protocol: (§1) Compounds of the present invention were evaluated in an Anti-Fungal Activity Assay. An exemplary procedure for the assay, which measures the susceptibility of various Candida species to anti-fungal compounds, follows. Compounds to be tested (including fluconazole and amphotericin B) were dissolved in DMSO to obtain a solution having a concentration of 1 mg/mL. […] All species were grown from frozen stock by directly plating on to freshly prepared Sabouraud Dextrose agar (BD, Difco) and incubated overnight in ambient air at 35° C. for 24 h. A direct suspension was prepared in RPMI 1640+MOPS (Lonza, Biowhittaker) by taking individual colonies from the overnight cultures using sterile swabs soaked in sterile saline. The concentration of the suspension was determined using pre-determined standard curves. […] Broth microtiter MIC challenge plates were prepared following CLSI guidelines (M27-A3, Vol. 28 No. 14). The original CLSI guidelines focused on reading Candida MICs after 48 h of incubation. As reading after only 24 h offers a clear advantage of patient care, QC limits are being established for all drugs at 24 h. That being said there are no known interpretive breakpoints for amphotericin B at 24 h and the current fluconazole interpretive breakpoints are based on a 48 h reading. The MIC breakpoints for the test compounds were recorded at 48 h, and for the soraphen the 24 h time-point was added. All MIC determinations were achieved by visually comparing the growth found in the antibiotic challenged wells to that of the growth control.

Human ACC2 = Human ACC2 (Homo sapiens, UniProt O00763); assay: In vitro ACC2 inhibition assay (ADP-Glo), human ACC2; type: biochemical; conditions: 5 nM ACC2, 20 μM ATP, 20 μM acetyl-CoA
Fungal ACC2 = Fungal ACC2 (UniProt Q00955); conditions: read-out: Fungal ACC2 (IC50, in vitro ACC2 inhibition)
[1] = test system: C. parapsilosis ATCC 22019; assay: Anti-Fungal Activity Assay (broth microtiter MIC), C. parapsilosis; type: cell-based, Candida parapsilosis; conditions: 3 replicates, MIC recorded at 48 h; for MIC: Lodderomyces parapsilosis, ATCC22019, 48 h, read-out: MIC C. parapsilosis ATCC 22019
Protocol: as §1

C. albicans ATCC 90028 = assay: Anti-Fungal Activity Assay (broth microtiter MIC), C. albicans; type: cell-based, Candida albicans; conditions: 3 replicates, MIC recorded at 48 h; for MIC: Candida albicans, ATCC90028, 48 h, read-out: MIC C. albicans ATCC 90028
Protocol: as §1

Sequence of Fungal ACC2 (Q00955 whole entry): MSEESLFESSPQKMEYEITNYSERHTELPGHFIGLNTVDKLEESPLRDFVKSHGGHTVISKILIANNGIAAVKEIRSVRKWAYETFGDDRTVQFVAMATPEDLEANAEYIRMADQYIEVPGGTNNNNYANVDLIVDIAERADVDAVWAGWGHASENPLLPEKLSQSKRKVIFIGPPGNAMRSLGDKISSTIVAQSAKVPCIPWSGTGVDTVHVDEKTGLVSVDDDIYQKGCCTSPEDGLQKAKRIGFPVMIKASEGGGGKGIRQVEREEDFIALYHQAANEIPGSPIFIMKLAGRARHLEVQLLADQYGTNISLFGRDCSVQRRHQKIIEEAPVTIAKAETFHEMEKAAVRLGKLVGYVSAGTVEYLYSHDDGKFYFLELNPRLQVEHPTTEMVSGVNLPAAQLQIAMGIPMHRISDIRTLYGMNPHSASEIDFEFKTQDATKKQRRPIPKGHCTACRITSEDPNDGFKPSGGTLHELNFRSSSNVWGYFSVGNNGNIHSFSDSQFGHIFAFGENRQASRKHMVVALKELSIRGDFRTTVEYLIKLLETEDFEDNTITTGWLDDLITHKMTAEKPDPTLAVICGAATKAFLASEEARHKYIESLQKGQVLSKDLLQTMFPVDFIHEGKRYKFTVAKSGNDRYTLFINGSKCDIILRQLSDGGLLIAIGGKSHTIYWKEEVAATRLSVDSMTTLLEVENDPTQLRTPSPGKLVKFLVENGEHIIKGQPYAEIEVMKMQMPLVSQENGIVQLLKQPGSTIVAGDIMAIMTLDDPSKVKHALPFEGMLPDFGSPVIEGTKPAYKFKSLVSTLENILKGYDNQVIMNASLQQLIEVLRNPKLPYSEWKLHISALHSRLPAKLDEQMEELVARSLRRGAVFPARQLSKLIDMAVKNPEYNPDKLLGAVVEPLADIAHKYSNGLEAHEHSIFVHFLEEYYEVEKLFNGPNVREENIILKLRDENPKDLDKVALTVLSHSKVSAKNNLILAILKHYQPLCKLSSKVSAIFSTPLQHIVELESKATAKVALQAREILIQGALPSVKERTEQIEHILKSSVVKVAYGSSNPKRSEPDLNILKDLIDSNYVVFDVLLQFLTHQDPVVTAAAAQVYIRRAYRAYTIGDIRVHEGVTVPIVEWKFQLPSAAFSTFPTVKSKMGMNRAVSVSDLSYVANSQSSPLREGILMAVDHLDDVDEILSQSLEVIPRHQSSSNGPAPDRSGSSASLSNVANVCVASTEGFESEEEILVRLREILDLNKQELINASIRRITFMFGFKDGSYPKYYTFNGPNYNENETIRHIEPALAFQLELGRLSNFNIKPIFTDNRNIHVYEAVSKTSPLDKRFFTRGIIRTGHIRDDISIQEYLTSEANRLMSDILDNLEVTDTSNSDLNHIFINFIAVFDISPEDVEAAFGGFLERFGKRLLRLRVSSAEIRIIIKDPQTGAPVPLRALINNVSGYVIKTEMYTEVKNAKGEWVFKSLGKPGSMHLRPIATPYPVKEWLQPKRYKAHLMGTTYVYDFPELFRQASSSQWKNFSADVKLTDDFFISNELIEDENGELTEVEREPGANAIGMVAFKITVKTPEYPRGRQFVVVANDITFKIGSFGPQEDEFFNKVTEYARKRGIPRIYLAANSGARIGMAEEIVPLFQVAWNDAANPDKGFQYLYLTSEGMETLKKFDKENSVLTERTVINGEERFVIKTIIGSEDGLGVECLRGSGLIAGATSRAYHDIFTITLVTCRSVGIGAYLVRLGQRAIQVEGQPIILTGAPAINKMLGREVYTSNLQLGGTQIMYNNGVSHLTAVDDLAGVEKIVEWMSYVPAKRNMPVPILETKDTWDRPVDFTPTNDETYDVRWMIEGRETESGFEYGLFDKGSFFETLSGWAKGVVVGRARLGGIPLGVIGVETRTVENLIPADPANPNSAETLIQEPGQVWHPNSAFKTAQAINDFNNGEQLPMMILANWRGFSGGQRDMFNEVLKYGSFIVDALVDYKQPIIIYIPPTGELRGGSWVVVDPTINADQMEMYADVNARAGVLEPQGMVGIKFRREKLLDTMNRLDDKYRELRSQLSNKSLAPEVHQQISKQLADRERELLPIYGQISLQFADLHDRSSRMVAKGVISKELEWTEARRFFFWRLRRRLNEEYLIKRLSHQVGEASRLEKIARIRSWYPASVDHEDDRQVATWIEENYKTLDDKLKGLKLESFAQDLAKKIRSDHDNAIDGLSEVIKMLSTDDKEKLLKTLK
Sequence of Human ACC2 (O00763 whole entry): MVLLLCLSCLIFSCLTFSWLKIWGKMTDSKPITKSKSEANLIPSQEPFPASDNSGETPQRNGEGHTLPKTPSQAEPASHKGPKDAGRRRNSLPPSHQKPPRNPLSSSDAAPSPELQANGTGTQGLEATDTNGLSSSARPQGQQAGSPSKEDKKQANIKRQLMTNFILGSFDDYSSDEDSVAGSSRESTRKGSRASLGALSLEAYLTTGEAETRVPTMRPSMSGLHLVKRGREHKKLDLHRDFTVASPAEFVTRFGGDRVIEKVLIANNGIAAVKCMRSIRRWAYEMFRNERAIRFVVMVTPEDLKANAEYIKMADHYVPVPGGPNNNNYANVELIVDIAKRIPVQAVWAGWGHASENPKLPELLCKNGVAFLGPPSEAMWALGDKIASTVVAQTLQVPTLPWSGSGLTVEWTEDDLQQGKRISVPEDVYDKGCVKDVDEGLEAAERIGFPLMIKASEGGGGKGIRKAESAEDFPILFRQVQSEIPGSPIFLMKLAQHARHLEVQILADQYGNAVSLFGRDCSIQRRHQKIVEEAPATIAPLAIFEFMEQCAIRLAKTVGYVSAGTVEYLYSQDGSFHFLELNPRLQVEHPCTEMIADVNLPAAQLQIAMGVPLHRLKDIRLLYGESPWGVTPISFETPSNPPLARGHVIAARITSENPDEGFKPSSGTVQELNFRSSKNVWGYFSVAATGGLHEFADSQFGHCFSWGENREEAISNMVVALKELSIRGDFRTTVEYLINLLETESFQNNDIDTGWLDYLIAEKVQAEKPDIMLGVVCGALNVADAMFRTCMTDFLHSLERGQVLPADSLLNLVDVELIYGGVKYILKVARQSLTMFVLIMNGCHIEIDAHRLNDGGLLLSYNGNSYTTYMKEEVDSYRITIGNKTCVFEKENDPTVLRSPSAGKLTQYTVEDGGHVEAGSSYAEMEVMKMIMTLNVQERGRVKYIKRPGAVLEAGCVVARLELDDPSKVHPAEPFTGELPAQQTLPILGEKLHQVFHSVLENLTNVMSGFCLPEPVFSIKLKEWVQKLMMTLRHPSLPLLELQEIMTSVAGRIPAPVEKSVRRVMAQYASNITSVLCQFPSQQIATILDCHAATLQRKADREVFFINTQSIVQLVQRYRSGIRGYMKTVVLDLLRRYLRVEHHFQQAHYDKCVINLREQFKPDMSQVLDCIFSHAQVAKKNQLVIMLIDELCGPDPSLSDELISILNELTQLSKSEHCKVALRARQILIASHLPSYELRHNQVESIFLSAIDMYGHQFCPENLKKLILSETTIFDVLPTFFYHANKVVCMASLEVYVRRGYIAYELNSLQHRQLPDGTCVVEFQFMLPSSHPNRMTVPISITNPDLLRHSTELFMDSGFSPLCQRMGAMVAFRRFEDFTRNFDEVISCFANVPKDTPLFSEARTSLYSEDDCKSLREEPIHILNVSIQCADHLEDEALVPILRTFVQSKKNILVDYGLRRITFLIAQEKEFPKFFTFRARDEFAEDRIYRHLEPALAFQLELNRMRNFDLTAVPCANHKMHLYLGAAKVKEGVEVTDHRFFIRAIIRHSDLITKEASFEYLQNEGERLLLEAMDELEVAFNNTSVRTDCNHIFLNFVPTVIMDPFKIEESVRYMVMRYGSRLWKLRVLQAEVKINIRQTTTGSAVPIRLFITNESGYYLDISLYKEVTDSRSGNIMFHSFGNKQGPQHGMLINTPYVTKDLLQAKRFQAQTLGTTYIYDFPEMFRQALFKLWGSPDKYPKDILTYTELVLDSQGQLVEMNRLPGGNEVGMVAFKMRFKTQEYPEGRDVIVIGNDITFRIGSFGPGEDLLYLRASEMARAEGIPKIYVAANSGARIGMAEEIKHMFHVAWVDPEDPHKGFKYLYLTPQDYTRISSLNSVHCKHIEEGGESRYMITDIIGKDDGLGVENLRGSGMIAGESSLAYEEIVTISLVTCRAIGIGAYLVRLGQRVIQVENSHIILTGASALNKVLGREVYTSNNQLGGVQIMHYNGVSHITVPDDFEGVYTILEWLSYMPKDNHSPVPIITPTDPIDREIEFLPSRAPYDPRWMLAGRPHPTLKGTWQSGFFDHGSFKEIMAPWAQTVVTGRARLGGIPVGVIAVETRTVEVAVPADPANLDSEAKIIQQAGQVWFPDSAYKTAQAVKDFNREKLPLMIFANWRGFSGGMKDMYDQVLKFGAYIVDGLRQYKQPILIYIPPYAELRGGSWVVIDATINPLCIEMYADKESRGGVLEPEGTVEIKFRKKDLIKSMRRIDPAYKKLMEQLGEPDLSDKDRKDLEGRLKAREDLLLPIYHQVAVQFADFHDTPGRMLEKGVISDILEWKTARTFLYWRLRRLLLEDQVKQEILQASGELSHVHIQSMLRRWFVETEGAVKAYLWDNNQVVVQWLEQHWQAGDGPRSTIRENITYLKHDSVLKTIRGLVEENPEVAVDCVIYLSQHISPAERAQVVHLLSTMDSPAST

Row | SMILES | MIC C. krusei ATCC 6258 (C. krusei ATCC 6258) | IC50 (Human ACC2) [nM] | IC50 (Fungal ACC2) [nM] | MIC C. parapsilosis ATCC 22019 [1] | MIC C. albicans ATCC 90028 (C. albicans ATCC 90028) | MIC (C. krusei ATCC 6258) [µg/mL] | MIC [1] [µg/mL] | MIC (C. albicans ATCC 90028) [µg/mL]
1 | COc1ccc(F)cc1[C@H](COc1nc2sc(-n3nccn3)c(C)c2c(=O)n1C1CC(=O)N(C)C1)OCCO (stereo in doubt) [Compound I-113, 2-((R)-2-(5-fluoro-2-methoxyphenyl)-2-(2-hydroxy-ethoxy)ethoxy)-5-methyl-3-((S)-1-methyl-5-oxopyrrolidin-3-yl)-6-(2H-1,2,3-triazol-2-yl)thieno[2,3-d]pyrimidin-4(3H)-one] | C (provided an MIC of 2.1-4.0 μg/mL) | > 1000 | 10 to 100 | C (provided an MIC of 2.1-4.0 μg/mL) | C (provided an MIC of 2.1-4.0 μg/mL) |  |  | 
2 | COc1ccc(F)cc1C(=O)Cn1c(=O)n(C2CCN(C)C2=O)c(=O)c2c(C)c(-n3nccn3)sc21 (stereo in doubt) [Compound I-162, (R)-1-(2-(5-fluoro-2-methoxyphenyl)-2-oxoethyl)-5-methyl-3-(1-methyl-2-oxopyrrolidin-3-yl)-6-(2H-1,2,3-triazol-2-yl)thieno[2,3-d]pyrimidine-2,4(1H,3H)-dione] | C (provided an MIC of 2.1-4.0 μg/mL) | 100 to 1000 | 10 to 100 | C (provided an MIC of 2.1-4.0 μg/mL) | C (provided an MIC of 2.1-4.0 μg/mL) |  |  | 
3 | COCCO[C@@H](Cn1c(=O)n(C2CCNC2=O)c(=O)c2c(C)c(-n3nccn3)sc21)c1cc(F)ccc1OC (stereo partly drawn) [Compound I-1, 1-((R)-2-(5-fluoro-2-methoxyphenyl)-2-(2-methoxyethoxy)ethyl)-5-methyl-3-(2-oxopyrrolidin-3-yl)-6-(2H-1,2,3-triazol-2-yl)thieno[2,3-d]pyrimidine-2,4(1H,3H)-dione] |  | 2 to 10 | 0.7 to 2 |  |  | 2.1 to 4 (≈ 3.76 to 7.16 µM) | 2.1 to 4 (≈ 3.76 to 7.16 µM) | 2.1 to 4 (≈ 3.76 to 7.16 µM)
4 | COCCO[C@@H](Cn1c(=O)n(C2CCN(C)C2=O)c(=O)c2c(C)c(-n3nccn3)sc21)c1cc(F)ccc1OC (stereo partly drawn) [Compound I-2, 1-((R)-2-(5-fluoro-2-methoxyphenyl)-2-(2-methoxy-ethoxy)ethyl)-5-methyl-3-(1-methyl-2-oxopyrrolidin-3-yl)-6-(2H-1,2,3-triazol-2-yl)thieno[2,3-d]pyrimidine-2,4(1H,3H)-dione] |  | 10 to 100 | 2 to 10 |  |  | 2.1 to 4 (≈ 3.67 to 6.99 µM) | 2.1 to 4 (≈ 3.67 to 6.99 µM) | 2.1 to 4 (≈ 3.67 to 6.99 µM)
5 | COCCO[C@@H](Cn1c(=O)n(C2CCN(C(C)C)C2=O)c(=O)c2c(C)c(-n3nccn3)sc21)c1cc(F)ccc1OC (stereo partly drawn) [Compound I-4, 1-((R)-2-(5-fluoro-2-methoxyphenyl)-2-(2-methoxy-ethoxy)ethyl)-3-(1-isopropyl-2-oxopyrrolidin-3-yl)-5-methyl-6-(2H-1,2,3-triazol-2-yl)thieno[2,3-d]pyrimidine-2,4(1H,3H)-dione] |  | 10 to 100 | 2 to 10 |  |  | 2.1 to 4 (≈ 3.5 to 6.66 µM) | 2.1 to 4 (≈ 3.5 to 6.66 µM) | 2.1 to 4 (≈ 3.5 to 6.66 µM)
6 | COc1ccc(F)cc1[C@H](Cn1c(=O)n(C2CCNC2=O)c(=O)c2c(C)c(-n3nccn3)sc21)OCCO (stereo partly drawn) [Compound I-5, 1-((R)-2-(5-fluoro-2-methoxyphenyl)-2-(2-hydroxyethoxy)ethyl)-5-methyl-3-(2-oxopyrrolidin-3-yl)-6-(2H-1,2,3-triazol-2-yl)thieno[2,3-d]pyrimidine-2,4(1H,3H)-dione] |  | 2 to 10 | 0.7 to 2 |  |  | 2.1 to 4 (≈ 3.86 to 7.35 µM) | 2.1 to 4 (≈ 3.86 to 7.35 µM) | 2.1 to 4 (≈ 3.86 to 7.35 µM)
7 | COc1ccc(F)cc1[C@H](Cn1c(=O)n(C2CCN(C)C2=O)c(=O)c2c(C)c(-n3nccn3)sc21)OC1CCOCC1 (stereo partly drawn) [Compound I-10, 1-((R)-2-(5-fluoro-2-methoxyphenyl)-2-((tetrahydro-2H-pyran-4-yl)oxy)ethyl)-5-methyl-3-(1-methyl-2-oxopyrrolidin-3-yl)-6-(2H-1,2,3-triazol-2-yl)thieno[2,3-d]pyrimidine-2,4(1H,3H)-dione] |  | 2 to 10 | 0.7 to 2 |  |  | 0.25 to 1 (≈ 0.418 to 1.67 µM) | 0.25 to 1 (≈ 0.418 to 1.67 µM) | 
8 | COCCO[C@@H](Cn1c(=O)n(C2CCCNC2=O)c(=O)c2c(C)c(-n3nccn3)sc21)c1cc(F)ccc1OC (stereo partly drawn) [Compound I-13, 1-((R)-2-(5-fluoro-2-methoxyphenyl)-2-(2-methoxy-ethoxy)ethyl)-5-methyl-3-(2-oxopiperidin-3-yl)-6-(2H-1,2,3-triazol-2-yl)thieno[2,3-d]pyrimidine-2,4(1H,3H)-dione] |  | 10 to 100 | 0.7 to 2 |  |  | 2.1 to 4 (≈ 3.67 to 6.99 µM) | 2.1 to 4 (≈ 3.67 to 6.99 µM) | 2.1 to 4 (≈ 3.67 to 6.99 µM)
9 | CCN1CCCC(n2c(=O)c3c(C)c(-n4nccn4)sc3n(C[C@H](OCCOC)c3cc(F)ccc3OC)c2=O)C1=O (stereo partly drawn) [Compound I-15, 3-(1-ethyl-2-oxopiperidin-3-yl)-1-((R)-2-(5-fluoro-2-methoxyphenyl)-2-(2-methoxyethoxy)ethyl)-5-1-methyl-6-(2H-1,2,3-triazol-2-yl)thieno[2,3-d]pyrimidine-2,4(1H,3H)-dione] |  | 10 to 100 | 10 to 100 |  |  | 2.1 to 4 (≈ 3.5 to 6.66 µM) | 2.1 to 4 (≈ 3.5 to 6.66 µM) | 2.1 to 4 (≈ 3.5 to 6.66 µM)
10 | COCCO[C@@H](Cn1c(=O)n([C@]2(C)CCN(C)C2=O)c(=O)c2c(C)c(-n3nccn3)sc21)c1cc(F)ccc1OC [Compound I-146, 3-((R)-1,3-dimethyl-2-oxopyrrolidin-3-yl)-1-((R)-2-(5-fluoro-2-methoxyphenyl)-2-(2-methoxyethoxy)ethyl)-5-methyl-6-(2H-1,2,3-triazol-2-yl)thieno[2,3-d]pyrimidine-2,4(1H,3H)-dione] |  | > 1000 | > 1000 |  |  |  |  | 
11 | COCCO[C@@H](Cn1c(=O)n([C@@]2(C)CCN(C)C2=O)c(=O)c2c(C)c(-n3nccn3)sc21)c1cc(F)ccc1OC [Compound I-148, 3-((S)-1,3-dimethyl-2-oxopyrrolidin-3-yl)-1-((R)-2-(5-fluoro-2-methoxyphenyl)-2-(2-methoxyethoxy)ethyl)-5-methyl-6-(2H-1,2,3-triazol-2-yl)thieno[2,3-d]pyrimidine-24(1H,3H)-dione] |  | > 1000 | > 1000 |  |  |  |  | 
12 | COc1ccc(F)cc1[C@H](Cn1c(=O)n([C@@H]2CCN(C)C2=O)c(=O)c2c(C)c(-n3nccn3)sc21)O[C@H]1C[C@H](O)C1 [Compound I-185, 1-((R)-2-(5-fluoro-2-methoxyphenyl)-2-((1r,3R)-3-hydroxycyclobutoxy)ethyl)-5-methyl-3-((R)-1-methyl-2-oxopyrrolidin-3-yl)-6-(2H-1,2,3-triazol-2-yl)thieno[2,3-d]pyrimidine-2,4(1H,3H)-dione] |  | 2 to 10 | 0.7 to 2 |  |  |  |  | 
13 | COc1ccc(F)cc1[C@H](Cn1c(=O)n([C@@H]2CCNC2=O)c(=O)c2c(C)c(-c3ncco3)sc21)O[C@H]1CC[C@@H](O)CC1 [Compound I-191, 1-((R)-2-(5-fluoro-2-methoxyphenyl)-2-(((1s, 4S)-4-hydroxycyclohexyl)oxy)ethyl)-5-methyl-6-(oxazol-2-yl)-3-((R)-2-oxopyrrolidin-3-yl)thieno[2,3-d]pyrimidine-2,4(1H,3H)-dione] |  | 0.7 to 2 | 0.7 to 2 |  |  |  |  | 
14 | COc1ccc(F)cc1[C@H](Cn1c(=O)n([C@H]2CCNC2=O)c(=O)c2c(C)c(-c3ncco3)sc21)O[C@H]1CC[C@@H](O)CC1 [Compound I-192, 1-((R)-2-(5-fluoro-2-methoxyphenyl)-2-(((1 s, 4S)4-hydroxycyclohexyl)oxy)ethyl)-5-methyl-6-(oxazol-2-yl)-3-((S)-2-oxopyrrolidin-3-yl)thieno[2,3-d]pyrimidine-2,4(1H,3H)-dione] |  | 2 to 10 | 0.7 to 2 |  |  |  |  | 
15 | COc1ccc(F)cc1[C@H](Cn1c(=O)n([C@@H]2CCN(C)C2=O)c(=O)c2c(C)c(-c3ncco3)sc21)O[C@H]1CC[C@@H](O)CC1 [Compound I-193, 1-((R)-2-(5-fluoro-2-methoxyphenyl)-2-(((1 s, 4S)-4-hydroxycyclohexyl)oxy)ethyl)-5-methyl-3-((R)-1-methyl-2-oxopyrrolidin-3-yl)-6-(oxazol-2-yl)thieno[2,3-d]pyrimidine-2,4(1H,3H)-dione] |  | 2 to 10 | 0.7 to 2 |  |  |  |  | 
16 | COc1ccc(F)cc1[C@H](Cn1c(=O)n([C@H]2CCN(C)C2=O)c(=O)c2c(C)c(-c3ncco3)sc21)O[C@H]1CC[C@@H](O)CC1 [Compound I-194, 1-((R)-2-(5-fluoro-2-methoxyphenyl)-2-(((1 s, 4S)-4-hydroxycyclohexyl)oxy)ethyl)-5-methyl-3-((S)-1-methyl-2-oxopyrrolidin-3-yl)-6-(oxazol-2-yl)thieno[2,3-d]pyrimidine-2,4(1H,3H)-dione] |  | 2 to 10 | 0.7 to 2 |  |  |  |  | 
